Measured values from PMC9714824, “Hexapeptides from mammalian inhibitory hormone hunt activate and inactivate nematode reproduction” (PLOS ONE, 2022).

What was measured:
Steinernema siamkayai [1] = test: Nematode pilot study fecundity (S3 Table 1); type: in vivo; conditions: inoculum 5 IJs
Excerpt: (§1) The attempt was made here to replicate prior fecundity work in another species of nematode, the entomopathogenic (insect slaying) Steinernema siamkayai. Species confirmation involved standard morphological and molecular techniques (S3 File, Nematodes). S. siamkayai is a biocontrol agent of potential economic significance in global agriculture, reducing the need for pesticides. Crucial for deployment is the production of ‘infective juveniles’. These forms penetrate the larvae of insect pests, releasing a bacterium, Xenorhabdus spp., which ultimately kills the larvae. Stock solutions (5 mg mL^-1) of EPL036 (IEPVFT) and EPL630 (KLKMNG) were made up and stored at −20 °C. Lipid Agar plates were prepared by pouring 5 ml media in 60 mm plastic Petri dishes. The plates were inoculated with an overnight-grown bacterial culture of Xenorhabdus spp. (10^9 cfu/ml) at 100 μl/plate and incubated at 28 °C for 24h. Xenorhabdus bacteria are symbiotically associated with S. siamkayai. While multiplying, Xenorhabdus metabolises the constituents of the lipid agar and the resulting by-products are the food supplement for the nematodes that triggers the worms to grow and multiply. From the stock solutions, peptides were introduced individually into the centre of the Lipid Agar plates with Xenorhabdus lawn. Two concentrations of peptide were used, 4 and 8 μL of the 5 mg mL^-1 stock peptide solutions (making 20 and 40 μg of peptide per plate in total, respectively, i.e. ~6 and ~12 μM). Each peptide solution was uniformly spread using an L shaped spreader and allowed to absorb into the agar plate for 10 minutes. Nematodes were harvested beforehand as follows. Third-stage infective juveniles (IJs) of S. siamkayai were used to infect fourth instar Galleria larvae. Following larval death, the Galleria cadavers were placed on a White’s Trap to harvest fresh progeny within 5–6 days. After storage in sterile water, these new-generation IJs were concentrated and inoculated on the bacterial plates on Day 1 at 500 and 1000 IJs /plate. The eight treatments (two inocula at two peptide concentrations) and two controls (two inocula without peptides) were replicated (x3) and incubated at 28 °C. Observations of behaviour and morphology were made at intervals throughout the study, then on Day 5 (i.e. after 4 units of 24h) the nematodes were harvested. Two ml of distilled water was poured on each Petri dish and gently stirred to release the nematodes from the surface. The surface washings containing suspended nematodes were collected in a standard volume of 20 ml of distilled water. The number of mature adults (male and female) and the second-generation juveniles (J1, J2, J3 and pre-adults) were counted using a dissecting microscope (x10 magnification, 4 fields) in 0.05 ml subsamples (x3) and multiplied up to the standard volume of 20 ml.
Mean number of A) Infective juveniles and B) Adults following inoculation of Petri dishes treated with EPL036 and EPL630 at 4 µL and 8 µL and an untreated control; Petri dishes were initially inoculated with 5 infective juveniles of Steinernema siamkayai following the method used in the main manuscript (Single way ANOVA presented beneath each data set).

Steinernema siamkayai [2] = test: Steinernema siamkayai reproduction and development on lipid agar plates with hexapeptides; type: in vivo; design: key to Infective juveniles / Adults: counts per plate, scaled from 0.05 ml subsamples to 20 ml
Excerpt: as §1
Fig 2 Developmental impact on Steinernema siamkayai of hexapeptides after 4 days. INOCULUM = founding population of infective juveniles (IJs). ‘Infective juveniles’ on the vertical axis are mostly second-generation IJs. Peptides applied at the start of the study were EPL036 = IEPVFT, […] = KLKMNG. Total = Adults + Infective juveniles. Data are mean +/- SEM (average of 3 replicates). Statistical analysis: ANOVA. Control bars are doubly represented for ease of comparison. Note different vertical axes. […]

Caenorhabditis elegans = conditions: in words; cited from earlier work
Excerpt: As a control compound there was synthesized EPL030, having the aa sequence KLKMNGKNIEPVFT. This is a scrambling of EPL001’s sequence, based on cards drawn at random by one of us (CRM). […] The figures for fecundity were EPL001 +43 ... || Returning to EPL030, the scrambled-sequence EPL001 comparator, this has engendered perplexity by displaying the same activity as EPL001 across multiple mammalian systems. Thus, EPL030 suppressed human prostate cancer cells in vitro more than EPL001 in two laboratories and the proliferation of rat bone marrow cells in vitro in a third.

[3] = system: human marrow derived mesenchymal stem cells (hMSCs); test: Peptide immobilisation studies, hMSC proliferation (CyQuant) and FACS; type: cell-based; conditions: alanine substitution study; for Mean cell number: N-terminally tethered, seeding 5,000 cells per well, CyQuant, mean +/− SEM, n = 3
Excerpt: Could the antiproliferative activity in vitro of EPL001 in solution be more predictably evoked and investigated more readily if the peptide is instead tethered to the cell culture’s substratum? […] In the first study EPL001 was immobilised by either its N terminus or C terminus and human stem cells exposed accordingly. This followed a confirmation of dissolved EPL001’s antiproliferative activity in the same laboratory (JAH). In the second study, aa sections of EPL001 were substituted with alanine strings prior to tethering, to define a functional biological motif. Into the base of each well of a 24-well plate was inserted a glass coverslip (13mm diameter, borosilicate glass, SLS, Nottingham, UK), upon the upper surface of which had been immobilised an individual peptide using a bioconjugate technique. During preparation of the coverslips, the surfaces were modified with carboxyl (−COOH) or amine (−NH2) groups separately using a published method. The carboxyl on the coverslips or at the end of the peptide sequence were reacted with NHS in the presence of EDC, resulting in a semi-stable NHS ester, which could then be reacted with primary amines (−NH2) on the coverslips or at the end of the peptide sequences to form amide crosslinks. For the carboxyl modified coverslips, the final peptide grafted on to the surface via its NH2 terminus was in the form Glass-CO-NH-Peptide. For the amine modified coverslips, the final peptide grafted on to the surface via its COOH terminus was in the form Glass-NH-CO-Peptide. The concentration of the peptides across the glass was approximately […]. Uncoated glass was used as the reference control. Treatments were in triplicate (i.e. n = 3). The cells used were human marrow derived mesenchymal stem cells (hMSCs, Lonza, Slough, UK, cat No PT-2507). In the EPL001-terminus study they were seeded at 10,000 cells per well; in the alanine substitution study the density was 5,000 cells per well. The cells were maintained in DMEM with 10% FSC. EPL001 and three alanine-substituted versions of it were deployed separately: MKPLTGKVKEFNNI (EPL001), AAAAAGKVKEFNNI (EPL590), MKPLTAAAAEFNNI (EPL545) and MKPLTGKVKEAAAA (EPL104). The peptides in the alanine substitution study were N-terminally tethered to the substrate. Cell numbers were measured by CyQuant® (Invitrogen, Paisley, UK). […] Statistical analysis was by ANOVA using SPSS software.
Four 14-aa peptides were synthesised: MKPLTGKVKEFNNI (EPL001), AAAAAGKVKEFNNI (EPL590), MKPLTAAAAEFNNI (EPL545) and MKPLTGKVKEAAAA (EPL104). The peptides were generated from l-isomer amino acids by solid phase peptide synthesis (Model 9050, Milligen). All peptides were N-terminally tethered to the substrate by a bioconjugate technique. MSCs were derived from human bone marrow and maintained in DMEM with 10% FSC. Cells were seeded on peptide treated surfaces including a glass control in a 24-well plate with cell density 5 x 10^3. The growth inhibitory activity was examined via cell proliferation assays and cell cycle analysis, using PI and Ki-67 staining. The cell phenotype and viability (7-AAD) were analysed by flow cytometry.

DU145 cells = test: MTS viable cell assay, DU145 (Epistem); type: cell-based, human; conditions: in words
Procedure: Further assays on human prostate cancer cells were conducted at a contract research organisation (Epistem, Manchester, UK). LNCaP or DU145 cells seeded at 3,000 cells/well across a 96-well plate were cultured in RPMI (phenol red free), 10% FCS, 1% sodium pyruvate, Pen/strep and L-glutamine for 24h before exposure to peptides, at a single dose level in the case of LNCaPs or multiple dose levels in the case of DU145s. (For dose levels see Results.) Controls received vehicle (1% PBS). For the DU145s peptide administration was repeated after 24h. 72h after the first administration (DU145s) or only administration (LNCaP) total viable cell numbers were measured colorimetrically (MTS) using a CellTiter 96 AQueous One Solution Cell Proliferation Assay (Promega, Southampton, UK), following manufacturer’s instructions. Briefly, the media on the plates was replaced with the CellTiter reagent diluted 1:5 in DMEM. The plates were returned to the incubator for 3 hours before reading absorbance at 492 nm on a FLUORstar OPTIMA (BMG Labtech). CellTiter data are the absorbance minus background values (CellTiter plus DMEM), expressed as (OD mean +/− SEM). Statistical analysis was by ANOVA, Dunnett’s multiple comparisons test.

PNT2 cells = test: MTS colorimetric viable cell assay, PNT2; type: cell-based, human; conditions: 30 μM, 27h, 492 nm, triplicate
Procedure: (§2) Assays involving a range of peptides from 14mer down to 6mers assessed total viable PC3 or PNT2 cells using a 96-well plate MTS colorimetric assay (CellTiter 96 Aqueous One Solution Cell Proliferation Assay, Promega, Southampton, UK), with absorbance measured at 492 nm. Cells were seeded at 8,000 per well and grown for 27h. Peptides were administered at the outset to a final concentration of 30 μM (in 2 μl) to samples in triplicate. (A higher dosage was used than in the 14mer peptides study to shorten the timecourse of response.) Controls received buffer. Data are OD mean +/ − SEM, with statistical analysis by two tailed t-test. A time course study of the 14mers on PC3s, using the same technique, involved measurements at 24h and 48h.
(§3) Fig 5 Effects of a range of peptides on human prostate cancer cell growth in vitro. Assays involved a range of peptides from 14mers down to 6mers (Table 1), with viable cells assessed using a 96-well plate MTS colorimetric assay. Absorbance measured at 492 nm. Cells were seeded at 8,000 per well and grown for 27h. Peptides were administered at the outset to a final concentration of 30 μM (in 2 μl) to samples in triplicate. Controls received buffer. Data are OD mean +/- SEM, with statistical analysis by two tailed t-test. * p<0.05; **p<0.025.

PC3 cells = test: MTS colorimetric viable cell assay, PC3; type: cell-based, human
Procedure: as §2, §3

[4] = system: hDPSC (Human Dental Pulp Derived Mesenchymal-Like Stem/Progenitor Cells); design: method as in earlier work; conditions: EPL001 0.15µM or EPL140 15µM, three days; cited from earlier work
hMSCs = system: hMSCs; design: method as in earlier work; conditions: EPL001 0.15µM or EPL140 15µM, three days; cited from earlier work

KLKMNG [EPL630, KLKMNG, EPL030 Front 6]
Adults (Steinernema siamkayai [1]; 4 µL, mean of 9 reps): 1.9
Infective juveniles (Steinernema siamkayai [1]; 4 µL, mean of 9 reps): 10.1
Adults (Steinernema siamkayai [1]; 4 µL, rep 1): 1
Adults (Steinernema siamkayai [1]; 4 µL, rep 2): 1
Adults (Steinernema siamkayai [1]; 4 µL, rep 3): 2
Adults (Steinernema siamkayai [1]; 4 µL, rep 4): 2
Adults (Steinernema siamkayai [1]; 4 µL, rep 5): 2
Adults (Steinernema siamkayai [1]; 4 µL, rep 6): 3
Adults (Steinernema siamkayai [1]; 4 µL, rep 7): 2
Adults (Steinernema siamkayai [1]; 4 µL, rep 8): 2
Adults (Steinernema siamkayai [1]; 4 µL, rep 9): 2
Adults (Steinernema siamkayai [1]; 8 µL, rep 1): 4
Adults (Steinernema siamkayai [1]; 8 µL, rep 2): 5
Adults (Steinernema siamkayai [2]; S3 Table 2, 8 µL, inoculum 500, mean of 3 reps): 363
Egg production in females (Steinernema siamkayai [2]; compared with untreated controls, 48h exposure (Fig 3)): markedly below that of controls
Adults as % of the population at termination (Steinernema siamkayai [2]; controls ~23%): 26–29%
Time after incubation to fully grown males and females (Steinernema siamkayai [2]; observational): 48 h
Time for infective juveniles to transform into pre-adults (Steinernema siamkayai [2]; observational): about 36 h

KLKNMGNKIEPVFT [EPL040, Scrambled EPL001 control]
Fecundity effect in C. elegans (Caenorhabditis elegans): anti-fecundity

MKPLTAAAAEFNNI [EPL545, Substituted EPL001; alanines 6–9]
Cell number vs Glass ([3]; Day 7): −29%
Cell number vs Glass ([3]; Day 14): −32%
Mean cell number ([3]; Day 7): 10,007 +/−3,281
Mean cell number ([3]; Day 14): 18,055 +/−1,771

MKPLTGKVKEAAAA [EPL104, Substituted EPL001; alanines 11–14]
Mean cell number below that of EPL001-N ([3]; 14 days): 16%
Cell number vs Glass ([3]; Day 7): −29%
Cell number vs Glass ([3]; Day 14): −37%
Number of cells in the G0/G1 phase ([3]; FACS, PI, 86% for glass control): 90%
Mean cell number ([3]; Day 7): 10,010 +/−4,427
Mean cell number ([3]; Day 14): 16,736 +/−1,302
Ki67 staining, % of cells ([3]; at termination, control cells 26.95%): 12.69%

MKPVFNNI [EPL801, EPL601 with all of the C-terminal triplet NNI from sSgII-70]
Cell inhibitory activity (DU145 cells): inactive

MLKTGEKPNFKNNI [EPL141, Human version of EPL143, with sheep V replaced by human N9]
Difference in percentage terms between control and test OD means (PNT2 cells): −27.9%
Difference in percentage terms between control and test OD means (PC3 cells; PC3, 30 μM, 27h, MTS, 492 nm, triplicate): −22.6%
Mean OD as % of the EPL001 mean (PC3 cells; PC3 time course study, 24h): 56%

MLKTGEKPNKFNNI [EPL140, Variant of human model compound EPL141, with KF instead of FK]
Bmal1 expression [4]: ↑↑
OCN expression [4]: ↓↓
PPARγ expression [4]: ↓
Per2 expression [4]: ↑↑
Rev-ErbA expression [4]: ↓
Sox9 expression [4]: (↑)
Bmal1 expression (hMSCs): ↑
OCN expression (hMSCs): ↓
PPARγ expression (hMSCs): ↓↓
Per2 expression (hMSCs): ↓
Rev-ErbA expression (hMSCs): ↓
Sox9 expression (hMSCs): ↓↓
